Data set [1] deals with T1, recombinant HIV integrase (Human immunodeficiency virus type 1 group M subtype B, UniProt P04585).
T1 construct: recombinant HIV integrase
The experiment in a line: HIV integrase inhibition assay (microtiter plate, biotin donor DNA / digoxigenin target DNA, colorimetric). Format: biochemical. Particulars: total inhibitory effect (3′ process reaction and strand transfer reaction), initial concentration 100 μg/mL, class symbol; for inhibition at 100 µg/mL: read-out: IC50 (μg/mL). The source says: The target compounds 8, 9, 12, 14 were screened against purified HIV IN to determine any potential inhibitory activity. Thus, a synthesized 30 oligonucleotide and a 20 oligonucleotide were used as donor DNA and target DNA, respectively, which were purchased from Shanghai Sangon Biological Engineering Technology & Services Co. Ltd. The donor DNA was biotinylated at the 5′ end (5′ bio-DNA) and immobilized on streptavidin-coated 96-well microtiter plates. To the donor DNA streptavidin-coated 96-well microtiter plate were added test sample, 3' digoxygenin-labeled target DNA (3' dig-DNA) and recombinant HIV integrase and subjected to incubation in optimized condition.
The plate was further washed with phosphate-buffered saline (PBS) containing 0.1% Tween®-20 and anti-digoxigenin-peroxidase (POD, 100 µL) was added to each well. After incubation at 37°C for 60 min, the plate was washed with PBS containing 0.1% Tween®-20. The digoxygenin-labeled products were visualized by adding a POD substrate, tetramethylbenzidine (TMB). The colorimetric reaction was stopped by addition of 0.5 mol/L H2SO4 (100 µL), and the absorbance was measured at 450 nm on a microplate reader. The total inhibitory effect (including inhibiting 3′ process reaction and strand transfer reaction) were obtained by comparing the absorbance of drug group with control group (without test compound).

Data set [2] can be described thus: Mg2+ binding by UV-Vis titration in CH3CN. Format: physicochemical. The procedure: Inspirited by this assumption, preliminary ion binding experiments were also carried out by UV-Vis spectroscopy, using compound 14a as an example. […] As the Mg^2+ concentration (as perchlorate salt) increased, the absorption intensity of the peak at 414 nm first decreased and then the wavelength shifted blue to around 402 nm. […] However, the Mg^2+ induced a blue shift of the absorption curve of compound 14a. Similar behaviors were also observed for other divalent metals, including Mn^2+, Co^2+, Cu^2+, Ca^2+ and Ni^2+ (not shown in Figure 3).
Figure 2 Changes of UV-vis spectra with 14a in CH3CN on addition of 0-16×10^-6 mol·L^-1 of [Mg^2+] at 25 °C. Conditions: [Mg^2+] =2 × 10^-3 M. [14a] = 2 × 10^-5 MBlack: 0×10^-6 mol·L^-1, blue: 2×10^-6 mol·L^-1, red: 4×10^-6 mol·L^-1, navy: 6×10^-6 mol·L^-1, brown: 8×10^-6 mol·L^-1, green: 10×10^-6 mol·L^-1, dark cyan: 12×10^-6 mol·L^-1, brass: 16×10^-6 mol.L^-1.
Figure 3 UV-Vis absorption spectra of free 14a and 14a in the presence of K^+, Na^+ or Mg^2+ ion in CH3CN solution. Conditions: [14a] = 2 × 10^-5 M; [Mg^2+] = [K^+] = [Na^+] = 2×10^-3 M; Black: 14a, blue: Na^+ complex, red: K^+ complex, navy: Mg^2+ complex.

Data set [3] is described as follows: Solubility in water (qualitative remark). Format: physicochemical.

Turning to “1-(3,4-Dimethoxystyrylcarboxylamino)-4-oxo-4H-quinolizine-3-carboxylic acid [9b]”, in data set [1], the “IC50 (μg/mL)” value was “-^2 (“-” indicates that the HIV-IN inhibitory effect was less than 50% at the initial concentration)”.

For orientation: melting point means the temperature of the solid-liquid transition. Take `O=C(O)c1cc(NS(=O)(=O)c2ccccc2)c2ccccn2c1=O` [8a, 1-Phenylsulfonamido-4-oxo-4H-quinolizine-3-carboxylic acid]: the melting point was in the range of 245 to 247 °C. For the same compound, the inhibition at 100 µg/mL in data set [1] is less than 50%.

In turn, `Cc1ccc(S(=O)(=O)Nc2cc(C(=O)O)c(=O)n3ccccc23)cc1` [8b, 1-p-Methylphenylsulfonamido-4-oxo-4H-quinolizine-3-carboxylic acid] gave a melting point of more than 300 °C. Also, the inhibition at 100 µg/mL in data set [1] was less than 50%.

Compound `O=C(O)c1cc(NS(=O)(=O)c2ccc(Cl)cc2)c2ccccn2c1=O` [8c, 1-p-Chlorophenylsulfonamido-4-oxo-4H-quinolizine-3-carboxylic acid] returned a melting point of more than 300 °C. Moreover, the inhibition at 100 µg/mL in data set [1] is less than 50%.

For the compound `COc1ccc(S(=O)(=O)Nc2cc(C(=O)O)c(=O)n3ccccc23)cc1` [8d, 1-p-Methoxyphenylsulfonamido-4-oxo-4H-quinolizine-3-carboxylic acid], the melting point is more than 300 °C. The inhibition at 100 µg/mL in data set [1] was less than 50%.

`O=C(O)c1cc(NS(=O)(=O)c2ccc([N+](=O)[O-])cc2)c2ccccn2c1=O` [8e, 1-p-Nitrophenylsulfonamido-4-oxo-4H-quinolizine-3-carboxylic acid] returned a melting point of more than 300 °C. The inhibition at 100 µg/mL in data set [1] is less than 50%.

`COc1cc(C(=O)Nc2cc(C(=O)O)c(=O)n3ccccc23)cc(OC)c1OC` [9a, 1-(3,4,5-Trimethoxyphenylcarbonylamino)-4-oxo-4H-quinolizine-3-carboxylic acid] returned a melting point of 280 to 282 °C. For the same compound, in data set [1], the inhibition at 100 µg/mL is less than 50%.

The compound `O=C(O)c1cc(-c2nc3ccccc3[nH]2)c2ccccn2c1=O` [14a, 1-(1H-Benzimidazol-2-yl)-4-oxo-4H-quinolizine-3-carboxylic acid] gave a melting point of more than 300 °C. Also, in data set [1], the inhibition at 100 µg/mL is less than 50%. Also, the “change of UV-Vis absorption in the presence of Na+ or K+” value in data set [2] (100-fold equivalent amount of Na+ or K+) is on record as “no obvious change”. For the same compound, in data set [2] ([14a] = 2 × 10^-5 M), the “change of UV-Vis absorption curve upon addition of Mg2+” value is given as “two-step shift of the absorption curve”. Also, in data set [3], the solubility in water result is recorded as “low solubility”.

Take `O=C(O)c1cc(-c2nc3cc(Cl)ccc3[nH]2)c2ccccn2c1=O` [14b, 1-(5(6)-Chloro-1H-benzimidazol-2-yl)-4-oxo-4H-quinolizine-3-carboxylic acid]: the melting point is more than 300 °C. The inhibition at 100 µg/mL in data set [1] was less than 50%.

Turning to `COc1ccc2[nH]c(-c3cc(C(=O)O)c(=O)n4ccccc34)nc2c1` [14c, 1-(5(6)-Methoxy-1H-benzimidazol-2-yl)-4-oxo-4H-quinolizine-3-carboxylic acid], the melting point was more than 300 °C. The inhibition at 100 µg/mL in data set [1] was less than 50%.

Compound `O=C(O)c1cc(-c2nc3ccccc3s2)c2ccccn2c1=O` [compound 12, 1-benzothiazol-2-yl-4-oxo-4H-quinolizine-3-carboxylic acid] had a melting point of more than 300 °C. Moreover, in data set [1], the inhibition at 100 µg/mL is less than 50%.
